Data published in patent publication US8962576B2, “Compositions and method for improving endothelial function and cardiovascular health” (Natreon, Inc., priority 2012, dated 2015).
Several values for one entry are separate records, joined by “and”; a condition that tells them apart may be missing. Identical values can stand only once.

Assays:
Format in all cases: in vivo, human
Type 2 Diabetic Subjects [1] = assay: Lipid profile, study (a), 12 weeks treatment; details: Sensoril or Capros 250 mg twice daily, Atorvastatin 10 mg at night, n = 10
Method: Study (a) design. Patients of either sex, aged 18-75 years, fasting plasma glucose of ≧110 mg/dL, a glycosylated hemoglobin (HbA1c) between 7% and 10% and taking stable doses of anti-diabetic treatment for the past 8 weeks prior to the screening visit; and having endothelial dysfunction defined as ≦6% change in reflection index (RI) on post salbutamol challenge test were included in the study. Patients with severe uncontrolled hyperglycaemia, uncontrolled hypertension, cardiac arrhythmia, impaired hepatic or renal function, history of malignancy or stroke, smoking, chronic alcoholism, any other serious disease requiring active treatment and treatment with any other herbal supplements, were excluded from the study. Pregnant and lactating women were also excluded.
All the eligible subjects were randomized to receive either one of the four treatments for duration of 12 weeks. There were ten (10) subjects per group. […] Subjects were asked to revisit for follow up at 4, 8 and 12 weeks of therapy. At each visit they were evaluated for efficacy and safety. Pharmacodynamic evaluation for endothelial function was conducted at every visit. Blood samples were collected for evaluation of biomarkers before and at the end of treatment. Safety lab investigations were conducted before and at the end of the study and as and when required in case of any adverse drug reaction (ADR). Subjects were examiner and/or surveyed for the presence of ADR and the same was recorded in the case report form. Compliance was assessed by pill count method.
All the subjects had undergone complete physical examination, safety lab evaluations at baseline, i.e., prior to treatment, and at the end of the treatment. Samples were collected after an overnight fast of 12 hrs after the last dose of medication for determination of haemoglobin level, glycosylated hemoglobin (HbA1c), urea and creatinine levels, liver function, and lipid profile (total cholesterol, high density lipoprotein cholesterol (HDL-C), and low density lipoprotein cholesterol (LDL-C)). Plasma glucose, liver function test, blood urea, serum creatinine and HbA1c were measured using appropriate standard techniques.

Type 2 Diabetic Subjects [2] = assay: Biomarkers of oxidative stress (NO, MDA, Glutathione), study (a); details: Sensoril or Capros 250 mg twice daily, Atorvastatin 10 mg at night; for Glutathione / MDA / NO: n = 10
Method: […]. (April 2004) 36(2): 76-79. Glutathione levels were determined as described in G. L. Ellman, Arch. Biochem. Biophys. (1959) 82: 70-77 (original determination). Nitric oxide levels were estimated spectrophotometrically as described in Miranda, et al., “A Rapid, Simple Spectrophotometric Method for Simultaneous Detection of Nitrate and Nitrite,” NITRIC OXIDE: Biology and Chemistry (2001) Vol. 5, No. 1, pp. 62-71.

Type 2 Diabetic Subjects [3] = assay: Other cardiovascular pharmacodynamic parameters (AIx, SEVR, ABI, PWV, CO, SVR), study (c); details: CAPROS 250 mg twice daily, Atorvastatin 10 mg daily, n = 20
Method: The augmentation index (AIx, defined as augmented pressure divided by pulse pressure and expressed as a percentage) is thus a composite measure of the magnitude of wave reflections and arterial stiffness, which affects timing of wave reflections. Because the augmentation index is influenced by changes in heart rate (HR), it is also accordingly corrected (AIx@75). The augmentation index was measured by using a validated, commercially available system (SphygmoCor; AtCor Medical, Sydney, Australia) that employs the principle of applanation tonometry and appropriate acquisition and analysis software for noninvasive recording and analysis of the arterial pulse. […] Waveforms of radial pressure were calibrated according to sphygmomanometric systolic and diastolic pressure measured in the brachial artery because there is practically negligible pressure pulse amplification between the brachial and the radial artery.
The subendocardial viability index, an indicator of myocardial workload and perfusion (O2 supply vs. demand) was calculated as the ratio of the integral of diastolic pressure and time to the integral of systolic pressure and time.
Brachial-ankle pulse wave velocity (baPWV) is also used to evaluate arterial stiffness. Pulse wave velocity is the speed at which the blood pressure pulse travels from the heart to the peripheral artery after blood rushes out during contraction. It is mainly used to evaluate stiffness of the artery wall. Pulse wave velocity increases with stiffness of the arteries. The PTT (Pulse Transit Time) of each segment is calculated from the waveform taken from each sensor. Pulse wave velocity is defined in Equation (1): […]
Brachial Ankle Pulse Wave Velocity (baPWV), Ankle Brachial Index (ABI) and Blood Pressure (BP) were measured using an automatic waveform analyzer (model BP-203 RPE; Colin Medical Technology, Komaki, Japan). Measurements were taken with patients lying in a supine position after 5 minutes of rest in that position. Occlusion and monitoring cuffs were placed snugly around both sites of the upper and lower extremities of patients. Pressure waveforms of the brachial and tibial arteries were then recorded simultaneously by an oscillometric method. Measurement of right and left baPWV was obtained for an average of 10 seconds. The average of left and right baPWV will be used for analysis.
Recording of cardiac output (CO) was performed using L&T Nivomon monitor (Larsen & Toubro Ltd., Mumbai, India). Noninvasive continuous cardiac output monitor with peripheral blood flow measurement option. This equipment is very useful and versatile. It calculates many cardiac parameters directly including cardiac output. It works on the features of impedance plethysmography principle and has tetrapolar configuration. The advantage is that this equipment directly calculates the cardiac output along with other parameters using the pulse wave.
After screening, all the eligible subjects were randomized to receive either one of the four treatments for a duration of 12 weeks, as follows.
The clinical measurements and pharmacodynamic tests were performed as described above in studies (a) or (b), unless otherwise stated.

For CC(C)c1c(C(=O)Nc2ccccc2)c(-c2ccccc2)c(-c2ccc(F)cc2)n1CC[C@@H](O)C[C@@H](O)CC(=O)O [Atorvastatin], the HDL-C (Type 2 Diabetic Subjects [1]; Post treatment, 12 weeks) was 48.2±6.01 mg/dL and 48.2 ± 6.01$ mg/dL, the LDL-C (Type 2 Diabetic Subjects [1]; Post treatment, 12 weeks) was 87.6 ± 19.07 mg/dL and the “Total Cholesterol” value (Type 2 Diabetic Subjects [1]; Post treatment, 12 weeks) was 146 ± 24.52 mg/dL. The Triglycerides (Type 2 Diabetic Subjects [1]; Post treatment, 12 weeks) was 102.8 ± 40.61 mg/dL, the HDL-C (Type 2 Diabetic Subjects [1]; Pre treatment) was 42.77 ± 6.13 mg/dL and the LDL-C (Type 2 Diabetic Subjects [1]; Pre treatment) was 133.2 ± 38.09 mg/dL. The “Total Cholesterol” value (Type 2 Diabetic Subjects [1]; Pre treatment) was 185.7 ± 36.38 mg/dL, the Triglycerides (Type 2 Diabetic Subjects [1]; Pre treatment) was 169.1 ± 67.51 mg/dL and the Glutathione (Type 2 Diabetic Subjects [2]; Post treatment, 12 weeks) was 721.6 ± 116.9 µmol/L. For the same molecule, the MDA (Type 2 Diabetic Subjects [2]; Post treatment, 12 weeks) was 2.13 ± 0.48 nmol/mL, the NO (Type 2 Diabetic Subjects [2]; Post treatment, 12 weeks) was 68.89 ± 11.54 µmol/L and the Glutathione (Type 2 Diabetic Subjects [2]; Pre treatment) was 530.8 ± 168.4 µmol/L. The MDA (Type 2 Diabetic Subjects [2]; Pre treatment) was 3.48 ± 0.73 nmol/mL, the NO (Type 2 Diabetic Subjects [2]; Pre treatment) was 42.24 ± 6.771 µmol/L and the “Mean % change in Glutathione” value (Type 2 Diabetic Subjects [2]; after 12 weeks of treatment) was 51.77% and 51.77 ± 62.72%. For the same molecule, the “Mean % change in MDA” value (Type 2 Diabetic Subjects [2]; after 12 weeks of treatment) was −38.05% and −38.05 ± 10.43%, the “Mean % change in NO” value (Type 2 Diabetic Subjects [2]; after 12 weeks of treatment) was 64.71% and 64.71 ± 27.25% and the “Absolute change in ABI” value (Type 2 Diabetic Subjects [3]; 12 weeks) was 0.08 ± 0.06. The “Absolute change in AIx” value (Type 2 Diabetic Subjects [3]; 12 weeks) was −12.14 ± 5.44%, the “Absolute change in CO” value (Type 2 Diabetic Subjects [3]; 12 weeks) was 0.84 ± 0.43 lt/min and the “Absolute change in PWV” value (Type 2 Diabetic Subjects [3]; 12 weeks) was −175.5 ± 110.82 cm/s. For the same molecule, the “Absolute change in SEVR” value (Type 2 Diabetic Subjects [3]; 12 weeks) was 11.09 ± 6.51%, the “Absolute change in SVR” value (Type 2 Diabetic Subjects [3]; 12 weeks) was −182.3 ± 109.61 dyne · sec/cm^5 and the ABI (Type 2 Diabetic Subjects [3]; Post TT, 12 weeks) was 1.10 ± 0.04$. For the same molecule, the AIx (Type 2 Diabetic Subjects [3]; Post TT, 12 weeks) was 123.4 ± 13.4$ %, the CO (Type 2 Diabetic Subjects [3]; Post TT, 12 weeks) was 5.15 ± 0.47$ lt/min and the PWV (Type 2 Diabetic Subjects [3]; Post TT, 12 weeks) was 1346 ± 147.6$ cm/s. For the same molecule, the SEVR (Type 2 Diabetic Subjects [3]; Post TT, 12 weeks) was 146.5 ± 16.09$ %, the “SVR (Systemic Vascular Resistance)” value (Type 2 Diabetic Subjects [3]; Post TT, 12 weeks) was 1336.95 ± 251.3$ dyne · sec/cm^5 and the ABI (Type 2 Diabetic Subjects [3]; Pre TT) was 1.02 ± 0.07. For the same molecule, the AIx (Type 2 Diabetic Subjects [3]; Pre TT) was 135.5 ± 14.71%, the CO (Type 2 Diabetic Subjects [3]; Pre TT) was 4.13 ± 0.65 lt/min and the PWV (Type 2 Diabetic Subjects [3]; Pre TT) was 1522 ± 127.7 cm/s. The SEVR (Type 2 Diabetic Subjects [3]; Pre TT) was 135.4 ± 19.11% and the “SVR (Systemic Vascular Resistance)” value (Type 2 Diabetic Subjects [3]; Pre TT) was 1519.25 ± 296.3 dyne · sec/cm^5.
